From patent US20050119253A1, “Method of treating mental disorders using of D4 and 5-HT2A antagonists, inverse agonists or partial agonists” (priority 2003, published 2005)

Legend:
[1] = metabolite from biotransformation in the liver; cited from earlier work
acute schizophrenia = settings: neuroleptic responsive inpatients with acute schizophrenia; cited from earlier work
5HT1E = 5HT1E (Homo sapiens, UniProt P28566); assay: pKi of test compounds, 5HT1E receptor; format: binding
Beta1 = Beta1 (Homo sapiens, UniProt P08588); assay: pKi of test compounds, adrenergic receptor Beta1; format: binding
other 5HT receptors = assay: pKi towards other 5HT receptors; format: binding; settings: 5-HT1A, 1B, 1D, 1E, 1F, 5-HT2B, 5-HT2C, 5-HT6 (rat), 5-HT7 (rat)
5HT1A = target: T1, 5HT1A (Homo sapiens, UniProt P08908); assay: pKi of test compounds, 5HT1A receptor; format: binding
T1 sequence (P08908 1-422): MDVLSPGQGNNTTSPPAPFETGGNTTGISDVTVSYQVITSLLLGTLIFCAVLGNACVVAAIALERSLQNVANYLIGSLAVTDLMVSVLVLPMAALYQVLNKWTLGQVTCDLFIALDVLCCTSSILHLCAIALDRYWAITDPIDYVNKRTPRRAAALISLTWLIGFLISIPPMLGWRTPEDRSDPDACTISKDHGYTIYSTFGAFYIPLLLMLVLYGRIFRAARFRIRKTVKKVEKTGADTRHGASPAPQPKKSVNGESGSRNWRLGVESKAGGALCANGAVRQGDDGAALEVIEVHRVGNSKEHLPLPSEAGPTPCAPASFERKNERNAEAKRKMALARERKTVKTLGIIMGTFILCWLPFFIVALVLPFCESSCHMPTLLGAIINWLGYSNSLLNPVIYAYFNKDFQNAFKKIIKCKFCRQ

D3 = D3 (Homo sapiens, UniProt P35462); assay: pKi of test compounds, D3 receptor; format: binding; settings: read-out: pKi D3 (converted)
5HT1B = 5HT1B (Homo sapiens, UniProt P28222); assay: pKi of test compounds, 5HT1B receptor; format: binding
other Dopamine receptors = assay: pKi towards other Dopamine receptors; format: binding; settings: D1, D2 and D3
Excerpt: ‘Other Dopamine receptors’ are, for instance, D1, D2 and D3.
pKi values of test compounds for Dopamine receptors can be measured using commonly known assays.

5HT1D = 5HT1D (Homo sapiens, UniProt P28221); assay: pKi of test compounds, 5HT1D receptor; format: binding; settings: read-out: pKi 5HT1D (converted)
5HT1F = 5HT1F (Homo sapiens, UniProt P30939); assay: pKi of test compounds, 5HT1F receptor; format: binding
D4 receptor = target: T2, D4 receptor (Homo sapiens, UniProt P21917); assay: pKi of test compounds, D4 receptor; format: binding; settings: D4; read-out: pKi D4 (converted)
T2 sequence (P21917 1-419): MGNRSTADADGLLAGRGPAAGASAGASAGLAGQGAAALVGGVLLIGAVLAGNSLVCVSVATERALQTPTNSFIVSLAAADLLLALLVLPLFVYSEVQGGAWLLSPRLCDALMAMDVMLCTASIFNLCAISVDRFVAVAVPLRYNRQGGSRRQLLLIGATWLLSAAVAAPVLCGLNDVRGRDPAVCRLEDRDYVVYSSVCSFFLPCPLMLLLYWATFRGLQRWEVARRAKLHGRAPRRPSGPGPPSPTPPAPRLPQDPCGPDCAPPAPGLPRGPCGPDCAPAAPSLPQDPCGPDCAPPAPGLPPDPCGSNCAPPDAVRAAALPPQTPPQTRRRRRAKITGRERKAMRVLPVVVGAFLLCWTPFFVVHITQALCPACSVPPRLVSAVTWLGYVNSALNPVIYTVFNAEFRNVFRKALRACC

Alpha2C = target: T3, Alpha2C (Homo sapiens, UniProt P18825); assay: pKi of test compounds, adrenergic receptor Alpha2C; format: binding
T3 sequence (P18825 1-462): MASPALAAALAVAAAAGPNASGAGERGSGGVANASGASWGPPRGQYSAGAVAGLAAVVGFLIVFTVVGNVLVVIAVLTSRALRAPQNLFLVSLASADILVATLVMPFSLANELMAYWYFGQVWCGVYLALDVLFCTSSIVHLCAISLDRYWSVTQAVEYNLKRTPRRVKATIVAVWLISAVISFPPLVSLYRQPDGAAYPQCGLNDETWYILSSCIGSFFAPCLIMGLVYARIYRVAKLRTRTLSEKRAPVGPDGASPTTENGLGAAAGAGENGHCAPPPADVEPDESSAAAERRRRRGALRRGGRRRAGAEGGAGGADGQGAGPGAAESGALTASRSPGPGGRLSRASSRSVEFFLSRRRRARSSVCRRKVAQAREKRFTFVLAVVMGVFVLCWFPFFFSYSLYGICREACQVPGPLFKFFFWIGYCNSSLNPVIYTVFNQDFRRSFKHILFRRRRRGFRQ

Beta2 = Beta2 (Homo sapiens, UniProt P07550); assay: pKi of test compounds, adrenergic receptor Beta2; format: binding
Alpha2A = target: T4, Alpha2A (Homo sapiens, UniProt P08913); assay: pKi of test compounds, adrenergic receptor Alpha2A; format: binding
T4 sequence (P08913 1-465): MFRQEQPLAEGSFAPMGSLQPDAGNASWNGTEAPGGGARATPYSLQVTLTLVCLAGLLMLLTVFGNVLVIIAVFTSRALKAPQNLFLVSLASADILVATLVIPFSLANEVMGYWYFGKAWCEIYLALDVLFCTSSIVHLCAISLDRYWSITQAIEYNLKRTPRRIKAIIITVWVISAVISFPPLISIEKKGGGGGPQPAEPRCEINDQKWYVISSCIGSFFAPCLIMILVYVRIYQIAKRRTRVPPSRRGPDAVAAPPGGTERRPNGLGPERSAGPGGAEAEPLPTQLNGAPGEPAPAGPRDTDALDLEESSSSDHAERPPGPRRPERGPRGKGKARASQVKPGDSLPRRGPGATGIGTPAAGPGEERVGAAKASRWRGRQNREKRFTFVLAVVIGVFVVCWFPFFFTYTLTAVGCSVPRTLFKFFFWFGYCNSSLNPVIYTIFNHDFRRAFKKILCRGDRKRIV

Sequence of Beta2 (P07550 whole entry): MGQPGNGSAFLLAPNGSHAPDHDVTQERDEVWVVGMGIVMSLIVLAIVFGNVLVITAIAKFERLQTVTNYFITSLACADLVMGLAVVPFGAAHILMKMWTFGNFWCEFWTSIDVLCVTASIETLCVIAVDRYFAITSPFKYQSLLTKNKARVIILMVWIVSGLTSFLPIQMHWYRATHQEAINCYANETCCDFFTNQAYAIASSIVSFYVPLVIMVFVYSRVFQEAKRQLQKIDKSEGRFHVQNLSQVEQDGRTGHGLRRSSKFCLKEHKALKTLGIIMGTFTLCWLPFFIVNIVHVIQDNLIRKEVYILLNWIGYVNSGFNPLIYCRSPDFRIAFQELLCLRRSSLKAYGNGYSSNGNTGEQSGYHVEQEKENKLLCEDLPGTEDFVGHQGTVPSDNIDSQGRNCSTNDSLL
Sequence of D3 (P35462 whole entry): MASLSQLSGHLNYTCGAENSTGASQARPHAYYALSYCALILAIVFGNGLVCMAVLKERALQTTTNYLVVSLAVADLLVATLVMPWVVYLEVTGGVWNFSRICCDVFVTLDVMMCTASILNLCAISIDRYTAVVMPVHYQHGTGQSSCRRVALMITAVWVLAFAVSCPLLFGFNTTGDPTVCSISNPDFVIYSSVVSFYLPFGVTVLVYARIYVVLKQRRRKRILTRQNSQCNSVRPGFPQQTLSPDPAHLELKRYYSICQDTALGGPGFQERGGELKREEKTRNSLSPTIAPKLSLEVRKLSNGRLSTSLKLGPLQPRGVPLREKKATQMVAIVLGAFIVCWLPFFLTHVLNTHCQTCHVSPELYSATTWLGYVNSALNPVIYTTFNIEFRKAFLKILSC
Sequence of Beta1 (P08588 whole entry): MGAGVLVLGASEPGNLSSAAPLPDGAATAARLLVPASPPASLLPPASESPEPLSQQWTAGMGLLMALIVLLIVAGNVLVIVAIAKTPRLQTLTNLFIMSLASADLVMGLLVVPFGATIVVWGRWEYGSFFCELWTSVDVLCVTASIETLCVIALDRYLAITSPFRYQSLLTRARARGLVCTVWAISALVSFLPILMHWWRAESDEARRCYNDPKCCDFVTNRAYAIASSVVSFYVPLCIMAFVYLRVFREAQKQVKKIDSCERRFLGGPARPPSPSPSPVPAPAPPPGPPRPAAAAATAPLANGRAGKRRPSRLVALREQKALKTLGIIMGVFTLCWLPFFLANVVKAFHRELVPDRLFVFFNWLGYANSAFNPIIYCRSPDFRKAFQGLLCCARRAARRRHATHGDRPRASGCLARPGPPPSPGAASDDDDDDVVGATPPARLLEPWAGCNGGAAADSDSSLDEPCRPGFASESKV
Sequence of 5HT1B (P28222 whole entry, species assumed): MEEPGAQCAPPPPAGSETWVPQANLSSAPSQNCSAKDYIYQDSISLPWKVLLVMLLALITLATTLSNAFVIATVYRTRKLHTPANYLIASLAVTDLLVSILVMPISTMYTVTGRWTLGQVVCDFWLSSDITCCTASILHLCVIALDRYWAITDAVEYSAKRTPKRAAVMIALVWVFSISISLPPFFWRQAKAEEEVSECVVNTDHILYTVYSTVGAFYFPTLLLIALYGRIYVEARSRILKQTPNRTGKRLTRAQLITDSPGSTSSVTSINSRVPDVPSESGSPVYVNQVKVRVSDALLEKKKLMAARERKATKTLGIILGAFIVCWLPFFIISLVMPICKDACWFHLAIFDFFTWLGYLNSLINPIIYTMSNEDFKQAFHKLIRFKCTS
Sequence of 5HT1D (P28221 whole entry, species assumed): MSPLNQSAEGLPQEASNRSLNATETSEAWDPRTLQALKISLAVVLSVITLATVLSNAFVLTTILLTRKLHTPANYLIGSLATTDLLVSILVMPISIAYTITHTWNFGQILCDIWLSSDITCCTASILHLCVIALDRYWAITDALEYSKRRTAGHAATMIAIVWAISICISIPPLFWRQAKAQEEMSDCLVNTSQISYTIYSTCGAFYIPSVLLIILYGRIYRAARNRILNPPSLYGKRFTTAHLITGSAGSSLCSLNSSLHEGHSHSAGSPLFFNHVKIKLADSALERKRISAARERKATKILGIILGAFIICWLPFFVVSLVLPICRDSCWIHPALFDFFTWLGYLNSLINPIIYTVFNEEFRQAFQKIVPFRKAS
Sequence of 5HT1E (P28566 whole entry, species assumed): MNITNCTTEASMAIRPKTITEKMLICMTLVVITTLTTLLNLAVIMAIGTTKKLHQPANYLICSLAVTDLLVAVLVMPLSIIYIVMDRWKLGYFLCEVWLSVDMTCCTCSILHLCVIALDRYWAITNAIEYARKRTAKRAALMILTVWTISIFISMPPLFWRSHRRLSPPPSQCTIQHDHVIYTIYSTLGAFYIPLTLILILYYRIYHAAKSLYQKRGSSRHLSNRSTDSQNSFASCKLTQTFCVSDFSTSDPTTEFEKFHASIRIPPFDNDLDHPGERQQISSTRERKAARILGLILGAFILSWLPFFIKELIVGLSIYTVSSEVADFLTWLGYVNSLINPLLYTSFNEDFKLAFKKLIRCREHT
Sequence of 5HT1F (P30939 whole entry, species assumed): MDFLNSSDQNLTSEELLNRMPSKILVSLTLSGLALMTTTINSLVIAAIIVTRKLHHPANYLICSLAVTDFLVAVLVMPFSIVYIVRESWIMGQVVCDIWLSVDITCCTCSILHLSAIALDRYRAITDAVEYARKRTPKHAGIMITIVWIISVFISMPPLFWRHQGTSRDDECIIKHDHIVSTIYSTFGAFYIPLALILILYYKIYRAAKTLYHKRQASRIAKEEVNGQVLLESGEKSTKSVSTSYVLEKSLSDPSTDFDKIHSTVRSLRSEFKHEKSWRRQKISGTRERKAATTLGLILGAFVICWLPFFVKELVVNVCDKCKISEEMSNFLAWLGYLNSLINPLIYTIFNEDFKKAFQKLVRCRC

SMILES: Cc1nc2n(c(=O)c1CCN1CCC(c3noc4cc(F)ccc34)CC1)CCCC2O (stereo not drawn) [9-hydroxyrisperidone]
- pharmacological activity and intensity relative to parent risperidone [1]: of the same pharmacological activity and intensity as parent risperidone

SMILES: Clc1ccc(N2CCN(Cc3c[nH]c4ncccc34)CC2)cc1 [L-745,870]
- antipsychotic efficacy (acute schizophrenia): ineffective as an antipsychotic

SMILES: NC(=O)C1(N2CCCCC2)CCN(CCCC(=O)c2ccc(F)cc2)CC1 [Pipamperone, 1′-[3-(p-Fluorobenzoyl)propyl]-[1,4′-bipiperidine]-4′-carboxamide]
- Ki (5HT1E): > 1000 nM
- Ki (Beta1): > 1000 nM
- pKi value towards other 5HT receptors (other 5HT receptors): less than 8
- Ki (5HT1A): > 1000 nM
- Ki (D3): 100 to 1000 nM
- Ki (5HT1B): 100 to 1000 nM
- pKi value towards other Dopamine receptors (other Dopamine receptors): less than 8
- Ki (5HT1D): 100 to 1000 nM
- Ki (5HT1F): > 1000 nM
- Ki (D4 receptor): 1 to 10 nM
- Ki (Alpha2C): 100 to 1000 nM
- Ki (Beta2): > 1000 nM
- Ki (Alpha2A): 100 to 1000 nM
